Source: patent US10689414B2 (Agios Pharmaceuticals, Inc., priority 2013, dated 2020)

Key:
HT1080 cells = test: Cellular assay, inhibition of 2-HG production in HT1080 cells; type: cell-based; conditions: Homo sapiens, HT-1080, 48 h
Procedure: Cells (HT1080 or U87MG) are grown in T125 flasks in DMEM containing 10% FBS, 1× penicillin/streptomycin and 500 ug/mL G418 (present in U87MG cells only). They are harvested by trypsin and seeded into 96 well white bottom plates at a density of 5000 cell/well in 100 ul/well in DMEM with 10% FBS. […] Cells are incubated overnight at 37° C. in 5% CO2. The next day test compounds are made up at 2× the final concentration and 100 ul are added to each cell well. The final concentration of DMSO is 0.2% and the DMSO control wells are plated in row G. The plates are then placed in the incubator for 48 hours. […] The cell plate is placed back in the incubator for another 24 hours. At 72 hours post compound addition, 10 mL/plate of Promega Cell Titer Glo reagent is thawed and mixed. The cell plate is removed from the incubator and allowed to equilibrate to room temperature. Then 100 ul of Promega Cell Titer Glo reagent is added to each well of media. The cell plate is then placed on an orbital shaker for 10 minutes and then allowed to sit at room temperature for 20 minutes. The plate is then read for luminescence with an integration time of 500 ms.

U87MG cells = test: Cellular assay, inhibition of 2-HG production in U87MG cells; type: cell-based
Procedure, shortened: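 HT1080 or U87MG cells (U87MG kept with 500 ug/mL G418) seeded at 5000 cells/well and treated with compound at 0.2% final DMSO. Incubated 48 h at 37 °C. 2-HG inhibition determined by LC-MS. Viability read by CellTiter-Glo luminescence at 72 h post-dose.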

IDH1 R132H = IDH1 R132H (Homo sapiens (Human), UniProt O75874, R132H); test: In vitro NADPH depletion assay for IDH1m R132H inhibitors; type: biochemical; conditions: IDH1 R132H enzyme, read-out: IDH R132H IC50
Procedure: (§1) A test compound is prepared as 10 mM stock in DMSO and diluted to 50× final concentration in DMSO, for a 50 μl reaction mixture. IDH enzyme activity converting alpha-ketoglutarate to 2-hydroxyglutaric acid is measured using a NADPH depletion assay. In the assay the remaining cofactor is measured at the end of the reaction with the addition of a catalytic excess of diaphorase and resazurin, to generate a fluorescent signal in proportion to the amount of NADPH remaining. […] The reaction is started with the addition of 10 μl of Substrate Mix ([…], 5 mM alpha-ketoglutarate, in Assay Buffer) and the mixture is incubated for 90 minutes at room temperature.

IDH1 R132C = IDH1 R132C (Homo sapiens (Human), UniProt O75874, R132C); test: In vitro NADPH depletion assay for IDH1m R132C inhibitors; type: biochemical; conditions: IDH1 R132C enzyme, read-out: IDH R132C IC50
Procedure: as §1
The concentration of NADPH and alpha-ketoglutarate in the Substrate Buffer is 20 μM and 1 mM, respectively.

[1] = inhibition of 2-HG production, U87MG cells, 48 hours

IDH1 R132H, sequence (O75874 whole entry R132H): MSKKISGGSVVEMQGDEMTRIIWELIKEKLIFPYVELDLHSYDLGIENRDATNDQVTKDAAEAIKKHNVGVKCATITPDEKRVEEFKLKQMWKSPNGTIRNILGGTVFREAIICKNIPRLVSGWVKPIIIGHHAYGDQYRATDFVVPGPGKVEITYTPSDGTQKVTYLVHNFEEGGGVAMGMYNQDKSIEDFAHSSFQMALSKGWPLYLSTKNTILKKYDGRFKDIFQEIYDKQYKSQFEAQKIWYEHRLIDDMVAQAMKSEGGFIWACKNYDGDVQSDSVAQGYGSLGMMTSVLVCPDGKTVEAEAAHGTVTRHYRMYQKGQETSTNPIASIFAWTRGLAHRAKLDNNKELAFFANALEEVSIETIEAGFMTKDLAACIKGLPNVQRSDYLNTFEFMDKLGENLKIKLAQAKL
IDH1 R132C, sequence (O75874 whole entry R132C): as the sequence (O75874 whole entry R132H) above, with H132C counted along it

For `N#Cc1ccnc(N2C(=O)CC[C@H]2C(=O)N(c2cccc(F)c2)[C@H](C(=O)NC2CC(F)(F)C2)c2c(Cl)cccc2Cl)c1` (single isomer, unassigned) [Compound 63], the IC50 (HT1080 cells) was < 100 nM and the IC50 (U87MG cells; Homo sapiens, U-87 MG, 48 h) was < 100 nM.
`N#Cc1ccnc(N2C(=O)OCC[C@H]2C(=O)N(c2cncc(F)c2)C(C(=O)NC2CC(F)(F)C2)c2ccccc2)c1` (stereo in doubt) [Compound 301, (S)-3-(4-cyanopyridin-2-yl)-N—((R)-2-((3,3-difluorocyclobutyl)amino)-2-oxo-1-phenylethyl)-N-(5-fluoropyridin-3-yl)-2-oxo-1,3-oxazinane-4-carboxamide] was tested, and the IC50 (HT1080 cells) was < 100 nM and the IC50 (IDH1 R132H) was < 100 nM.
`N#Cc1ccnc(N2C(=O)OCC[C@H]2C(=O)N(c2cncc(F)c2)C(C(=O)NC2CC(F)(F)C2)c2ccccc2F)c1` (stereo in doubt) [Compound 302, (S)-3-(4-cyanopyridin-2-yl)-N—((R)-2-(3,3-difluorocyclobutylamino)-1-(2-fluorophenyl)-2-oxoethyl)-N-(5-fluoropyridin-3-yl)-2-oxo-1,3-oxazinane-4-carboxamide] was tested, and the IC50 (HT1080 cells) was < 100 nM and the IC50 (IDH1 R132H) was < 100 nM.
`Cc1cccnc1N1C(=O)CC[C@H]1C(=O)N(c1cccc(F)c1)[C@H](C(=O)NC1CC(F)(F)C1)c1ccccc1Cl` [Compound 15] gave an IC50 (HT1080 cells) of 100 to 500 nM and an IC50 (U87MG cells; Homo sapiens, U-87 MG, 48 h) of 100 to 500 nM.
`O=C(NC1CC(F)(F)C1)[C@H](c1ccccc1Cl)N(C(=O)[C@@H]1CCC(=O)N1c1nccc2ccccc12)c1cccc(F)c1` [Compound 16] showed an IC50 (HT1080 cells) of 100 to 500 nM and an IC50 (U87MG cells; Homo sapiens, U-87 MG, 48 h) of 500 to 1000 nM.
For `COc1cccnc1N1C(=O)CC[C@H]1C(=O)N(c1cccc(F)c1)[C@H](C(=O)NC1CC(F)(F)C1)c1ccccc1Cl` [Compound 17], the IC50 (HT1080 cells) was 500 to 1000 nM and the IC50 (U87MG cells; Homo sapiens, U-87 MG, 48 h) was 1000 to 2000 nM.
With `Cc1cccc(N2C(=O)CC[C@H]2C(=O)N(c2cccc(F)c2)[C@H](C(=O)NC2CC(F)(F)C2)c2ccccc2Cl)n1` [Compound 28] the IC50 (HT1080 cells) was < 100 nM.
With `O=C(NC1CC(F)(F)C1)[C@H](c1ccccc1Cl)N(C(=O)[C@@H]1CCC(=O)N1c1cc(C(F)(F)F)ccn1)c1cccc(F)c1` [Compound 40] the IC50 (HT1080 cells) was 100 to 500 nM and the IC50 (U87MG cells; Homo sapiens, U-87 MG, 48 h) was 100 to 500 nM.
`O=C(NC1CC(F)(F)C1)[C@H](c1ccccc1Cl)N(C(=O)[C@@H]1COCC(=O)N1c1ncccn1)c1cccc(F)c1` [Compound 45] gave an IC50 (HT1080 cells) of 100 to 500 nM and an IC50 (U87MG cells; Homo sapiens, U-87 MG, 48 h) of 100 to 500 nM.
With `O=C(NC1CC(F)(F)C1)[C@H](c1ccccc1Cl)N(C(=O)[C@@H]1CCC(=O)N1c1ccc(Cl)cn1)c1cccc(F)c1` [Compound 48] the IC50 (HT1080 cells) was 100 to 500 nM and the IC50 (U87MG cells; Homo sapiens, U-87 MG, 48 h) was 100 to 500 nM.
In the case of `O=C(NC1CC(F)C1)[C@H](c1ccccc1Cl)N(C(=O)[C@@H]1CCC(=O)N1c1ncccn1)c1cccc(F)c1` (some centres unmarked) [Compound 49], the IC50 (HT1080 cells) is reported as 100 to 500 nM and the IC50 (U87MG cells; Homo sapiens, U-87 MG, 48 h) is reported as 100 to 500 nM.
In the case of `N#Cc1cccc(N(C(=O)[C@@H]2CCC(=O)N2c2nccc(C#N)n2)[C@H](C(=O)NC2CCC(F)(F)CC2)c2ccccc2Cl)c1` [Compound 178, (S)—N—((S)-1-(2-Chlorophenyl)-2-((4,4-difluorocyclohexyl)amino)-2-oxoethyl)-N-(3-cyanophenyl)-1-(4-cyanopyrimidin-2-yl)-5-oxopyrrolidine-2-carboxamide], the IC50 (HT1080 cells) is reported as 100 to 500 nM and the IC50 (U87MG cells; Homo sapiens, U-87 MG, 48 h) is reported as < 100 nM.
“(2S)—N-(1-(2-Chlorophenyl)-2-((3,3-difluorocyclobutyl)amino)-2-oxoethyl)-1-(4-cyanopyridin-2-yl)-N-(3-fluoro-5-(methylsulfonyl)phenyl)-5-oxopyrrolidine-2-carboxamide [Compound 110]” was tested, and the IC50 (IDH1 R132H) was < 100 nM, the IC50 (IDH1 R132C) was < 100 nM and the IC50 (U87MG cells; [1]) was < 100 nM.
In the case of “(2S)—N-(1-(2-Chlorophenyl)-2-((4,4-difluorocyclohexyl)amino)-2-oxoethyl)-1-(4-cyanopyridin-2-yl)-N-(3-fluoro-5-(methylsulfonyl)phenyl)-5-oxopyrrolidine-2-carboxamide [Compound 105]”, the IC50 (IDH1 R132H) is reported as < 100 nM, the IC50 (IDH1 R132C) is reported as < 100 nM and the IC50 (U87MG cells; [1]) is reported as < 100 nM.
“(S)-tert-butyl 3-(((S)-1-(2-chlorophenyl)-2-((3,3-difluorocyclobutyl) amino)-2-oxoethyl)(3,5-difluorophenyl)carbamoyl)-5-oxopiperazine-1-carboxylate [Compound 97]” was tested, and the IC50 (IDH1 R132H) was < 100 nM, the IC50 (IDH1 R132C) was < 100 nM and the IC50 (U87MG cells; [1]) was < 100 nM.
In the case of “(S)—N—((S)-1-(2-Chlorophenyl)-2-(3,3-difluorocyclobutylamino)-2-oxoethyl)-1-(3-cyano-phenyl)-N-(1H-indazol-7-yl)-5-oxopyrrolidine-2-carboxamide [Compound 186]”, the IC50 (IDH1 R132H) is reported as < 100 nM, the IC50 (IDH1 R132C) is reported as < 100 nM and the IC50 (U87MG cells; [1]) is reported as < 100 nM.
For “(S)—N—((S)-1-(2-Chlorophenyl)-2-(3,3-difluorocyclobutylamino)-2-oxoethyl)-N-(3-cyano-5-fluorophenyl)-3-(3-cyanophenyl)-2-oxooxazolidine-4-carboxamide [Compound 134]”, the IC50 (IDH1 R132H) was < 100 nM, the IC50 (IDH1 R132C) was < 100 nM and the IC50 (U87MG cells; [1]) was < 100 nM.
With “(S)—N—((S)-1-(2-Chlorophenyl)-2-((3,3-difluorocyclobutyl)amino)-2-oxoethyl)-1-(4-cyanopyridin-2-yl)-N-(1H-indazol-6-yl)-5-oxopyrrolidine-2-carboxamide [Compound 205]” the IC50 (IDH1 R132H) was < 100 nM, the IC50 (IDH1 R132C) was < 100 nM and the IC50 (U87MG cells; [1]) was < 100 nM.
“(S)—N—((S)-1-(2-Chlorophenyl)-2-((3,3-difluorocyclobutyl)amino)-2-oxoethyl)-1-(4-cyanopyrimidin-2-yl)-N-(3-fluoro-5-(methylsulfonyl)phenyl)-5-oxopyrrolidine-2-carboxamide [Compound 109]” was tested, and the IC50 (IDH1 R132H) was < 100 nM, the IC50 (IDH1 R132C) was < 100 nM and the IC50 (U87MG cells; [1]) was 100 to 500 nM.
For “(S)—N—((S)-1-(2-Chlorophenyl)-2-((4,4-difluorocyclohexyl)amino)-2-oxoethyl)-3-(4-cyano-pyridin-2-yl)-N-(3-fluorophenyl)-2-oxooxazolidine-4-carboxamide [Compound 78]”, the IC50 (IDH1 R132H) was < 100 nM, the IC50 (IDH1 R132C) was < 100 nM and the IC50 (U87MG cells; [1]) was < 100 nM.
